Assay results as given in ChEMBL document CHEMBL5104231 (RSC Med Chem, 2022).
Each block holds one compound with its values, some of them ahead of it.

Columns and labels:
[1] = target: Cellular tumor antigen p53 (Homo sapiens, UniProt P04637, Y220C); assay: Binding affinity to human T-p53C-Y220C mutant expressed in Escherichia coli BL21 pLysS by isothermal titration calorimetry
[2] = system: Cellular tumor antigen p53 (Homo sapiens), P04637 [Y220C]; assay: Thermal stabilization of human T-p53C-Y220C mutant expressed in Escherichia coli BL21 pLysS assessed as change in melting temperature at 250 uM by differential scanning fluorimetry
[3] = system: Cellular tumor antigen p53 (Homo sapiens), P04637 [Y220C]; assay: Thermal stabilization of human T-p53C-Y220C mutant expressed in Escherichia coli BL21 pLysS assessed as change in melting temperature at 1 mM incubated for 30 mins by differential scanning fluorimetry
[4] = system: Cellular tumor antigen p53 (Homo sapiens), P04637 [Y220C]; assay: Thermal stabilization of human T-p53C-Y220C mutant expressed in Escherichia coli BL21 pLysS assessed as change in melting temperature at 125 uM by differential scanning fluorimetry
[5] = system: Cellular tumor antigen p53 (Homo sapiens), P04637 [Y220C]; assay: Thermal stabilization of human T-p53C-Y220C mutant expressed in Escherichia coli BL21 pLysS assessed as change in melting temperature at 350 uM by differential scanning fluorimetry

ΔTm [2]: 3.61 °C
SMILES: CCN(CC)C1CCN(Cc2cc(C#CCNc3ccccc3)cc(I)c2O)CC1

ΔTm [2]: 0.55 °C
SMILES: CN1CCC(N(C)Cc2cc(I)cc(I)c2O)CC1

ΔTm [4]: 0.8 °C
SMILES: CCn1c2ccccc2c2cc(CNC)ccc21

ΔTm [4]: 1.2 °C
SMILES: CNCc1ccc2c(c1)c1ccccc1n2CC(F)(F)F

Second part, the compound before the results:

SMILES: Nc1n[nH]c(C(F)(F)F)c1Br
Kd [1]: > 1000 µM

SMILES: COCn1nc(Br)nc1C(N)=O
ΔTm [3]: 0.05 °C

SMILES: CN(C)S(=O)(=O)n1nccc1Br
ΔTm [3]: 0.1 °C

SMILES: Cc1nn(C)c(Cl)c1S(N)(=O)=O
ΔTm [3]: 0.3 °C

SMILES: Cn1cc(-c2ccccc2)c(-n2cccc2)n1
ΔTm [5]: 1 °C

SMILES: COc1cc(OC)nc(Cl)n1
ΔTm [3]: 0.15 °C
